From patent US6911445B2, “Antidepressant cycloalkylamine derivatives of heterocycle-fused benzodioxans” (Wyeth, priority 2002, dated 2005)
Structures can show the parent of a compound that is named as a salt.

Assays:
serotonin transporter = target: T1, serotonin transporter (Rattus norvegicus, UniProt P31652); test: Displacement of 3H-paroxetine from male rat frontal cortical membranes (serotonin transporter affinity); type: binding; settings: read-out: 5-HT Transporter Affinity Ki
T1 construct: displace ^3H-paroxetine from male rat frontal cortical membranes; from tissue; host or cells: male rat frontal cortex membranes
T1 sequence (P31652 whole entry): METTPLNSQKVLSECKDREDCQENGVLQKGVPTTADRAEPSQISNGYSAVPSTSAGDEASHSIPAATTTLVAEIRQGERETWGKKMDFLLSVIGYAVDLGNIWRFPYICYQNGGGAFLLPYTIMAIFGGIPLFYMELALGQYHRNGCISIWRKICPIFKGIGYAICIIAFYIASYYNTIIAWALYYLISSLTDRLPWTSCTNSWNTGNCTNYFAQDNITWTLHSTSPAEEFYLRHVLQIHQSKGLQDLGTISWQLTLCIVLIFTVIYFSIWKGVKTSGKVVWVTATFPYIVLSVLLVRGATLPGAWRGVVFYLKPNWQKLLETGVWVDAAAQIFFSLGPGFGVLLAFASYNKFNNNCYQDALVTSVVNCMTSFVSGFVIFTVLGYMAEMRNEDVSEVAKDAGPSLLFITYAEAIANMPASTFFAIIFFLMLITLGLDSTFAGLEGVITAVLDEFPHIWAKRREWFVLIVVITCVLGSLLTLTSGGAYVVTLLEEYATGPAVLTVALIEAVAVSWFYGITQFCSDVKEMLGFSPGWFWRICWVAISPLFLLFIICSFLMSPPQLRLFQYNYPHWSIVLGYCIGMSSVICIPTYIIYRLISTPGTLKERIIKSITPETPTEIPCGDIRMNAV

human 5HT1A receptors = target: T2, human 5HT1A receptors (Homo sapiens, UniProt P08908); test: Displacement of [3H] 8-OH-DPAT from 5HT1A receptor in stably transfected CHO cells; type: binding; settings: CHO cells with human 5HT1A receptors, read-out: 5HT1A Receptor Affinity Ki
T2 construct: expressed in transfected cells; host or cells: CHO cells
T2 sequence (P08908 1-422): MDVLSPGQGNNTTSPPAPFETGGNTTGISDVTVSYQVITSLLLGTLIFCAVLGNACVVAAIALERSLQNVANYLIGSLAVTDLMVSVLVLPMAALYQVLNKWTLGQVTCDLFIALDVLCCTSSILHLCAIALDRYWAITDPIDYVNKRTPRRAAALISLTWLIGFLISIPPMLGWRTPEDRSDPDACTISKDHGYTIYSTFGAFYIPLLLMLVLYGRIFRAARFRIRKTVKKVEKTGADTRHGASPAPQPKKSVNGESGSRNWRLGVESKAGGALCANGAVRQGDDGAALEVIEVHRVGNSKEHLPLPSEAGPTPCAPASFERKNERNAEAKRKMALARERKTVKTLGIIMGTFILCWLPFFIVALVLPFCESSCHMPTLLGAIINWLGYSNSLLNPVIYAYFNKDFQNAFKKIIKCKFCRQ
Text: High affinity for the serotonin 5HT1A receptor was established by testing the claimed compound's ability to displace [^3H] 8-OH-DPAT (dipropylamino-tetralin) from the 5HT1A serotonin receptor following a modification of the procedure of Hall, et al., J. Neurochem. 44, 1685 (1985), which utilizes CHO cells stably transfected with human 5HT1A receptors.

[1] = target: T3, cloned human 5HT1A receptors (Homo sapiens, UniProt P08908); test: 35S-GTPγS binding assay, membranes containing cloned human 5HT1A receptors; type: biochemical; settings: for EC50: given as EC50, increase in 35S-GTPγS binding (agonist), read-out: 5HT1A Function EC50; for Emax: given as Emax, agonist effect, read-out: 5HT1A Function Emax; for IC50: antagonist potency, reversal of the standard agonist 8-OH-DPAT, read-out: 5HT1A Function IC50; for 5HT1A Function (Imax): maximum inhibitory effect, value in parentheses
T3 construct: expressed in transfected cells
T3 sequence (P08908 1-422): T2 sequence (P08908 1-422)
Method: Antagonist activity at 5HT1A receptors was established by using a ^35S-GTPγS binding assay similar to that used by Lazareno and Birdsall (Br. J. Pharmacol. 109:1120, 1993), in which the test compound's ability to affect the binding of ^35S-GTPγS to membranes containing cloned human 5HT1A receptors was determined. Agonists produce an increase in binding whereas antagonists produce no increase but rather reverse the effects of the standard agonist 8-OH-DPAT. The test compound's maximum inhibitory effect is represented as the Imax, while its potency is defined by the IC50.

| SMILES | melting point | Ki (serotonin transporter) | Ki (human 5HT1A receptors) | EC50 [1] | Emax [1] | IC50 [1] | 5HT1A Function (Imax) [1] |
| --- | --- | --- | --- | --- | --- | --- | --- |
| Cc1ccc2c3c(ccc2n1)OC[C@H](CN[C@H]1CC[C@@H](c2c[nH]c4ccc(F)cc24)C1)O3 (mixture of isomers) (as salt: HCl) (hydrate or solvate) [Example 3, N-[(cis)-3-(5-fluoro-1H-indol-3-yl)cyclopentyl]-N-{[(2S)-8-methyl-2,3-dihydro[1,4]dioxino[2,3-f]quinolin-2-yl]methyl}amine] | 234 to 235 °C |  |  |  |  |  |  |
| Cc1ccc2c3c(ccc2n1)OC[C@H](CN[C@H]1CC[C@@H](c2c[nH]c4ccccc24)C1)O3 (mixture of isomers) [Example 1, N-[(cis)-3-(1H-indol-3-yl)cyclopentyl]-N-{[(2S)-8-methyl-2,3-dihydro[1,4]dioxino[2,3-f]quinolin-2-yl]methyl}amine] |  | 1.25 nM | 2.56 nM | 33 nM | 38% |  |  |
| Cc1ccc2c3c(ccc2n1)OC[C@H](CN[C@H]1CC[C@@H](c2c[nH]c4ccc(F)cc24)C1)O3 (mixture of isomers) [Example 3, N-[(cis)-3-(5-fluoro-1H-indol-3-yl)cyclopentyl]-N-{[(2S)-8-methyl-2,3-dihydro[1,4]dioxino[2,3-f]quinolin-2-yl]methyl}amine] |  | 0.93 nM | 4.73 nM |  |  | 83 nM | 100% |
| Cc1ccc2c3c(ccc2n1)OC[C@H](CN(C)[C@H]1CC[C@@H](c2c[nH]c4ccc(F)cc24)C1)O3 (mixture of isomers) [Example 9, N-[(cis)-3-(5-fluoro-1H-indol-3-yl)cyclopentyl]-N-methyl-N-{[(2S)-8-methyl-2,3-dihydro[1,4]dioxino[2,3-f]quinolin-2-yl]methyl}amine] |  | 0.84 nM | 5.01 nM |  |  | 242 nM | 100% |
| Cc1ccc2c3c(ccc2n1)OC[C@H](CN(C)[C@@H]1CC[C@H](c2c[nH]c4ccc(F)cc24)C1)O3 (relative stereo) (as salt: fumarate) [Example 13, N-[(1R*,3S*)-3-(5-fluoro-1H-indol-3-yl)cyclopentyl]-N-methyl-N-{[(2S)-8-methyl-2,3-dihydro[1,4]dioxino[2,3-f]quinolin-2-yl]methyl}amine] | 198 to 199 °C (dec.) |  |  |  |  |  |  |
| Cc1ccc2c3c(ccc2n1)OC[C@H](CN(C)[C@@H]1CC[C@H](c2c[nH]c4ccc(F)cc24)C1)O3 (relative stereo) [Example 13, N-[(1R*,3S*)-3-(5-fluoro-1H-indol-3-yl)cyclopentyl]-N-methyl-N-{[(2S)-8-methyl-2,3-dihydro[1,4]dioxino[2,3-f]quinolin-2-yl]methyl}amine] |  | 5.45 nM | 18.8 nM |  |  | 494 nM | 100% |
| Cc1ccc2c3c(ccc2n1)OC[C@H](CN[C@@H]1CC[C@H](c2c[nH]c4ccc(F)cc24)C1)O3 (single isomer, unassigned) [Example 3-Isomer A, N-[(1R*,3S*)-3-(5-fluoro-1H-indol-3-yl)cyclopentyl]-N-{[(2S)-8-methyl-2,3-dihydro[1,4]dioxino[2,3-f]quinolin-2-yl]methyl}amine] |  | 0.38 nM | 8.73 nM |  |  | 69 nM | 82% |
| Cc1ccc2c3c(ccc2n1)OCC(CNC1CCC(c2c[nH]c4ccc(F)cc24)C1)O3 (single isomer, unassigned) [Example 3-Isomer B, N-[(1S*,3R*)-3-(5-fluoro-1H-indol-3-yl)cyclopentyl]-N-{[(2S)-8-methyl-2,3-dihydror[1,4]dioxino[2,3-f]quinolin-2-yl]methyl}amine] |  | 0.33 nM | 2.03 nM |  |  | 34 nM | 97% |
| Cc1ccc2c3c(ccc2n1)OC[C@H](CN[C@H]1CC[C@H](c2c[nH]c4ccc(F)cc24)C1)O3 (single isomer, unassigned) [Example 4-Isomer A, N-[(1S*,3S*)-3-(5-fluoro-1H-indol-3-yl)cyclopentyl]-N-{[(2S)-8-methyl-2,3-dihydro[1,4]dioxino[2,3-f]quinolin-2-yl]methyl}amine] |  | 0.54 nM | 7.72 nM |  |  | 60 nM | 56% |
| Cc1ccc2c3c(ccc2n1)OC[C@H](CN[C@@H]1CC[C@@H](c2c[nH]c4ccc(F)cc24)C1)O3 (single isomer, unassigned) [Example 4-Isomer B, N-[(1R*,3R*)-3-(5-fluoro-1H-indol-3-yl)cyclopentyl]-N-{[(2S)-8-methyl-2,3-dihydro[1,4]dioxino[2,3-f]quinolin-2-yl]methyl}amine] |  | 0.67 nM | 26.5 nM |  |  | 1440 nM | 100% |
| Cc1ccc2c3c(ccc2n1)OCC(CNC1CCC(c2cn(C)c4ccc(F)cc24)C1)O3 (single isomer, unassigned) [Example 5-Isomer A, N-[(1R*,3S*)-3-(5-fluoro-1-methyl-1H-indol-3-yl)cyclopentyl]-N-{](2S)-8-methyl-2,3-dihydro[1,41]dioxino[2,3-f]quinoli-2-yl]methyl}amine] |  | 2.11 nM | 12.5 nM |  |  | 190 nM | 88% |
| Cc1ccc2c3c(ccc2n1)OCC(CNC1CCC(c2cn(C)c4ccc(F)cc24)C1)O3 (single isomer, unassigned) [Example 5-Isomer B, N-[(1S*,3R*)-3-(5-fluoro-1-methyl-1H-indol-3-yl)cyclopentyl]-N-{[(2S)-8-methyl-2,3-dihydro[1,4]dioxino[2,3-f]quinoli-2-yl]methyl}amine] |  | 3 nM | 1.91 nM |  |  | 158 nM | 97% |
| Cc1ccc2c3c(ccc2n1)OCC(CNC1CCC(c2cn(C)c4ccc(F)cc24)C1)O3 (single isomer, unassigned) [Example 5] |  | 3.69 nM | 5.35 nM |  |  | 142 nM | 69% |
| Cc1ccc2c3c(ccc2n1)OCC(CNC1CCC(c2cn(C)c4ccc(F)cc24)C1)O3 (single isomer, unassigned) [Example 6] |  | 1.67 nM | 20.3 nM |  |  | 228 nM | 55% |
| Cc1ccc2c3c(ccc2n1)OCC(CNC1CCC(c2c[nH]c4ccccc24)C1)O3 [Example 2, N-[(trans)-3-(1H-indol-3-yl)cyclopentyl]-N-{[(2S)-8-methyl-2,3-dihydro[1,4]dioxino[2,3-f]quinoli-2-yl]methyl}amine] |  | 1.69 nM | 12.8 nM |  |  |  |  |
| Cc1ccc2c3c(ccc2n1)OCC(CNC1CCC(c2c[nH]c4ccc(F)cc24)C1)O3 [Example 4, N-[(trans)-3-(5-fluoro-1H-indol-3-yl)cyclopentyl]-N-{[(2S)-8-methyl-2,3-dihydro[1,4]dioxino[2,3-f]quinoli-2-yl]methyl}amine] |  | 0.62 nM | 9.12 nM |  |  | 44 nM | 84% |
| Cc1ccc2c3c(ccc2n1)OC[C@H](CN[C@H]1CC[C@@H](c2c[nH]c4ccc(F)cc42)CC1)O3 [Example 7, (cis)-N-[4-(5-fluoro-1H-indol-3-yl)cyclohexyl]-N-{[(2S)-8-methyl-2,3-dihydro[1,4]dioxino[2,3-f]quinolin-2-yl]methyl}amine] |  | 19 nM | 51.7 nM |  |  |  |  |
| Cc1ccc2c3c(ccc2n1)OC[C@H](CN[C@H]1CC[C@H](c2c[nH]c4ccc(F)cc42)CC1)O3 [Example 8, (trans)-N-[4-(5-fluoro-1H-indol-3-yl)cyclohexyl]-N-{[(2S)-8-methyl-2,3-dihydro[1,4]dioxino[2,3-f]quinolin-2-yl]methyl}amine] |  | 4.16 nM | 14.6 nM | 66 nM | 95% |  |  |
